In the NIST ThermoML archive (doi:10.1016/j.jct.2017.04.003):
Numbers after ± are expanded uncertainties.

SMILES: [Na+].[Na+].[O-][O-] [sodium peroxide]
- Normal melting temperature (Crystal 1, DTA): 666.6 ± 10 °C
- Triple point temperature (Crystal 2, DSC): 756.8 ± 10 K
